Measurements reported in patent US12692238B2, “Substituted pyridazinone herbicides” (FMC CORPORATION, priority 2020, dated 2026).

Assays:
Format in all cases: in vivo
[1] = tested on: barnyardgrass (Echinochloa crus-galli); test: Test A preemergence, barnyardgrass; conditions: 10 days
From the text: (§1) Seeds of plant species selected from barnyardgrass (Echinochloa crus-galli), blackgrass (Alopecurus myosuroides), corn (Zea mays), foxtail, giant (giant foxtail, Setaria faberi), foxtail, green (green foxtail, Setaria viridis), goosegrass (Eleusine indica), kochia (Bassia scoparia), oat, wild (wild oat, Avena fatua), palmer amaranth (pigweed, palmer, Amaranthus palmeri), redroot pigweed (Amaranthus retroflexus), ragweed (common ragweed, Ambrosia artemisiifolia), ryegrass, Italian (Italian ryegrass, Lolium multiflorum), and soybean (Glycine max) were planted into a blend of loam soil and sand and treated preemergence with a directed soil spray using test chemicals formulated in a non-phytotoxic solvent mixture which included a surfactant.
(§2) At the same time, plants selected from these crop and weed species and also wheat (Triticum aestivum), galium (catchweed bedstraw, Galium aparine) and horseweed (Erigeron canadensis) were planted in pots containing the same blend of loam soil and sand and treated with postemergence applications of test chemicals formulated in the same manner. Plants ranged in height from 2 to 10 cm and were in the one- to two-leaf stage for the postemergence treatment. Treated plants and untreated controls were maintained in a greenhouse for 10 days, after which time all treated plants were compared to untreated controls and visually evaluated for injury. Plant response ratings, summarized in Table A, are based on a 0 to 100 scale where 0 is no effect and 100 is complete control. A dash (-) response means no test result.

[2] = tested on: foxtail, green (green foxtail, Setaria viridis); test: Test A preemergence, foxtail, green; conditions: 0 to 100 scale, 10 days
From the text: as §1, §2

kochia (Bassia scoparia) [3] = test: Test A preemergence, kochia; conditions: 0 to 100 scale, 10 days
From the text: as §1, §2

[4] = tested on: redroot pigweed (Amaranthus retroflexus); test: Test A preemergence, redroot pigweed; conditions: 0 to 100 scale, 10 days
From the text: as §1, §2

[5] = tested on: ragweed (common ragweed, Ambrosia artemisiifolia); test: Test A preemergence, ragweed; conditions: 0 to 100 scale, 10 days
From the text: as §1, §2

[6] = tested on: ryegrass, Italian (Italian ryegrass, Lolium multiflorum); test: Test A preemergence, ryegrass, Italian; conditions: 0 to 100 scale, 10 days
From the text: as §1, §2

[7] = tested on: barnyardgrass (Echinochloa crus-galli); test: Test A postemergence, barnyardgrass; conditions: 10 days
From the text: as §1, §2

[8] = tested on: blackgrass (Alopecurus myosuroides); test: Test A postemergence, blackgrass; conditions: 10 days
From the text: as §1, §2

corn (Zea mays) = test: Test A postemergence, corn; conditions: 10 days
From the text: as §1, §2

[9] = tested on: foxtail, green (green foxtail, Setaria viridis); test: Test A postemergence, foxtail, green; conditions: 10 days
From the text: as §1, §2

kochia (Bassia scoparia) [10] = test: Test A postemergence, kochia; conditions: 10 days
From the text: as §1, §2

[11] = tested on: redroot pigweed (Amaranthus retroflexus); test: Test A postemergence, redroot pigweed; conditions: 10 days
From the text: as §1, §2

[12] = tested on: ragweed (common ragweed, Ambrosia artemisiifolia); test: Test A postemergence, ragweed; conditions: 10 days
From the text: as §1, §2

[13] = tested on: ryegrass, Italian (Italian ryegrass, Lolium multiflorum); test: Test A postemergence, ryegrass, Italian; conditions: 10 days
From the text: as §1, §2

[14] = tested on: wheat (Triticum aestivum); test: Test A postemergence, wheat; conditions: 10 days
From the text: as §1, §2

[15] = tested on: galium (catchweed bedstraw, Galium aparine); test: Test A postemergence, galium; conditions: 10 days
From the text: as §1, §2

[16] = tested on: barnyardgrass (Echinochloa crus-galli); test: Test B flooded paddy test, barnyardgrass; conditions: 250 g ai/ha, Flood; visually evaluated after 10 to 14 days
Procedure: (§3) Plant species in the flooded paddy test selected from barnyardgrass (Echinochloa crus-galli), ducksalad (Heteranthera limosa), rice (Oryza sativa), and sedge, umbrella (small-flower umbrella sedge, Cyperus difformis) were grown to the 2-leaf stage for testing. At time of treatment, test pots were flooded to 3 cm above the soil surface, treated by application of test compounds directly to the paddy water, and then maintained at that water depth for the duration of the test. Treated plants and controls were maintained in a greenhouse for 10 to 14 days, after which time all species were compared to controls and visually evaluated. Plant response ratings, summarized in Table B, are based on a scale of 0 to 100 where 0 is no effect and 100 is complete control. A dash (-) response means no test result.

[17] = tested on: ducksalad (Heteranthera limosa); test: Test B flooded paddy test, ducksalad; conditions: 250 g ai/ha, Flood; visually evaluated after 10 to 14 days
Procedure: as §3

rice (Oryza sativa) = test: Test B flooded paddy test, rice; conditions: 250 g ai/ha, Flood; visually evaluated after 10 to 14 days
Procedure: as §3

[18] = tested on: sedge, umbrella (small-flower umbrella sedge, Cyperus difformis); test: Test B flooded paddy test, sedge, umbrella; conditions: 250 g ai/ha, Flood; visually evaluated after 10 to 14 days
Procedure: as §3

[19] = tested on: foxtail, giant (giant foxtail, Setaria faberi); test: Test A preemergence, foxtail, giant; conditions: 0 to 100 scale, 10 days
From the text: as §1, §2

[20] = tested on: foxtail, giant (giant foxtail, Setaria faberi); test: Test A postemergence, foxtail, giant; conditions: 10 days
From the text: as §1, §2

[21] = 125 g ai/ha, 0 to 100 scale (0 no effect, 100 complete control)
[22] = Postemergence, 31 g ai/ha, 0 to 100 scale
[23] = Postemergence, 125 g ai/ha, 0 to 100 scale
[24] = 31 g ai/ha, postemergence, 0 to 100 scale (0 no effect, 100 complete control)

SMILES | Plant response rating, Barnyardgrass ([1]; 31 g ai/ha, 0 to 100 scale) | Plant response rating, Barnyardgrass [1, 21] | Plant response rating, Kochia (kochia (Bassia scoparia) [3]; 31 g ai/ha) | Plant response rating, Kochia (kochia (Bassia scoparia) [3]; 125 g ai/ha) | Plant response rating, Pigweed, Redroot ([4]; 31 g ai/ha) | Plant response rating, Pigweed, Redroot ([4]; 125 g ai/ha) | Plant response rating, Ragweed ([5]; 31 g ai/ha) | Plant response rating, Ragweed ([5]; 125 g ai/ha) | Plant response rating, Ryegrass, Italian ([6]; 31 g ai/ha) | Plant response rating, Ryegrass, Italian ([6]; 125 g ai/ha) | Plant response rating, Barnyardgrass [7, 23] | Plant response rating, Blackgrass [8, 23] | Plant response rating, Corn (corn (Zea mays); [23]) | Plant response rating, Kochia (kochia (Bassia scoparia) [10]; [24]) | Plant response rating, Kochia (kochia (Bassia scoparia) [10]; [23]) | Plant response rating, Pigweed, Redroot [11, 24] | Plant response rating, Pigweed, Redroot [11, 23] | Plant response rating, Ragweed [12, 24] | Plant response rating, Ragweed [12, 23] | Plant response rating, Ryegrass, Italian [13, 24] | further results
Cc1ccc2ccc(F)cc2c1-c1c(OCOC(=O)C(C)(C)C)c(Cl)nn(C)c1=O [Compound 4] | 10 | 100 | 20 | 100 | 100 | 100 | 100 | 100 | 90 | 100 | 60 | 70 | 0 | 10 | 40 | 70 | 100 | 50 | 100 | 50 | Plant response rating, Foxtail, Green ([2]; 31 g ai/ha): 70; Plant response rating, Foxtail, Green ([2]; 125 g ai/ha): 100; Plant response rating, Barnyardgrass [7, 22]: 20; Plant response rating, Blackgrass [8, 22]: 20; Plant response rating, Corn (corn (Zea mays); [22]): 0; Plant response rating, Foxtail, Green [9, 24]: 40; Plant response rating, Foxtail, Green [9, 23]: 80; Plant response rating, Ryegrass, Italian [13, 23]: 90; Plant response rating, Wheat [14, 24]: 40; Plant response rating, Wheat [14, 23]: 70; Plant response rating, Galium [15, 24]: 70; Plant response rating, Galium [15, 23]: 100; Plant response rating, Barnyardgrass (0 to 100 scale where 0 is no effect and 100 is complete control) [16]: 75; Plant response rating, Ducksalad (0 to 100 scale where 0 is no effect and 100 is complete control) [17]: 95; Plant response rating, Rice (0 to 100 scale where 0 is no effect and 100 is complete control) (rice (Oryza sativa)): 35; Plant response rating, Sedge, Umbrella (0 to 100 scale where 0 is no effect and 100 is complete control) [18]: 95
CC(=O)OCOc1c(C)nn(C)c(=O)c1-c1c2cc(F)ccc2cc2c(C)cc(C)cc12 [Compound 27] | 0 | 30 | 0 | 80 | 100 | 100 | 50 | 100 | 10 | 90 | 30 | 0 | 10 | 10 | 70 | 100 | 100 | 90 | 90 | 100 | Plant response rating, Foxtail, Giant ([19]; 31 g ai/ha): 0; Plant response rating, Foxtail, Giant ([19]; 125 g ai/ha): 70; Plant response rating, Barnyardgrass [7, 24]: 20; Plant response rating, Blackgrass [8, 24]: 0; Plant response rating, Corn (corn (Zea mays); [24]): 0; Plant response rating, Foxtail, Giant [20, 24]: 0; Plant response rating, Foxtail, Giant [20, 23]: 30; Plant response rating, Ryegrass, Italian [13, 23]: 100; Plant response rating, Wheat [14, 24]: 0; Plant response rating, Wheat [14, 23]: 0; Plant response rating, Galium [15, 24]: 70; Plant response rating, Galium [15, 23]: 100; Plant response rating, Barnyardgrass (0 to 100 scale where 0 is no effect and 100 is complete control) [16]: 0; Plant response rating, Ducksalad (0 to 100 scale where 0 is no effect and 100 is complete control) [17]: 65; Plant response rating, Rice (0 to 100 scale where 0 is no effect and 100 is complete control) (rice (Oryza sativa)): 15; Plant response rating, Sedge, Umbrella (0 to 100 scale where 0 is no effect and 100 is complete control) [18]: 65
CC(=O)OCOc1c(C)nn(C)c(=O)c1-c1c2cc(C)ccc2cc2c(F)cc(C)cc12 [Compound 29] | 0 | 70 | 20 | 100 | 100 | 100 | 90 | 90 | 0 | 60 | 90 | 20 | 0 | 60 | 100 | 100 | 100 | 100 | 100 | 40 | Plant response rating, Foxtail, Giant ([19]; 31 g ai/ha): 0; Plant response rating, Foxtail, Giant ([19]; 125 g ai/ha): 20; Plant response rating, Barnyardgrass [7, 24]: 20; Plant response rating, Blackgrass [8, 24]: 0; Plant response rating, Corn (corn (Zea mays); [24]): 0; Plant response rating, Foxtail, Giant [20, 24]: 20; Plant response rating, Foxtail, Giant [20, 23]: 20; Plant response rating, Ryegrass, Italian [13, 23]: 60; Plant response rating, Wheat [14, 24]: 0; Plant response rating, Wheat [14, 23]: 0; Plant response rating, Galium [15, 24]: 90; Plant response rating, Galium [15, 23]: 100; Plant response rating, Barnyardgrass (0 to 100 scale where 0 is no effect and 100 is complete control) [16]: 55; Plant response rating, Ducksalad (0 to 100 scale where 0 is no effect and 100 is complete control) [17]: 95; Plant response rating, Rice (0 to 100 scale where 0 is no effect and 100 is complete control) (rice (Oryza sativa)): 0; Plant response rating, Sedge, Umbrella (0 to 100 scale where 0 is no effect and 100 is complete control) [18]: 98
